Source: patent US9833497B2, “Human originated EGF domain proteins and use of the same” (CHENGDU SOURCEBIO LIMITED-LIABILITY COMPANY, priority 2013, dated 2017)

Assays:
Assay type in all cases: cell-based
E. coli BL21 = assay: MIC against Gram-negative bacteria: E. coli BL21; conditions: 5×10^5 CFU/mL
Summary of the method: (§1)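 Bacteria grown in LB at 37° C with shaking to McFarland 0.5, pelleted and resuspended in fresh LB, then seeded at 5×10^5 CFU/mL per well. Purified recombinant human EGF domain proteins were two-fold serially diluted in triplicate and plates shaken at 37° C, 175 rpm. MIC is the lowest protein concentration with no bacterial growth.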

Aeromonas hydrophila = assay: MIC against Gram-negative bacteria: Aeromonas hydrophila; conditions: 5×10^5 CFU/mL
Summary of the method: as §1

E. coli DH5α = assay: Antibacterial activity: MIC and growth curve against E. coli DH5α in 96-well plate; conditions: minimal inhibitory concentration against E. coli DH5α; 96-well plate, 5×10^5 CFU/mL, 37° C., judged after 8 h
Summary of the method: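 Log-phase bacteria (OD600 ~0.5) resuspended in LB at 5×10^5 CFU/mL, exposed to recombinant protein at 50, 25, 12.5 μg/mL final in triplicate, 37 °C shaking at 175 rpm. OD600 read every 30 min; MIC is lowest concentration showing no growth.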

Pseudomonas aeruginosa = assay: MIC against Gram-negative bacteria: Pseudomonas aeruginosa; conditions: 5×10^5 CFU/mL
Summary of the method: as §1

Proteus vulgaris = assay: MIC against Gram-negative bacteria: Proteus vulgaris; conditions: 5×10^5 CFU/mL
Summary of the method: as §1

Proteus mirabilis = assay: MIC against Gram-negative bacteria: Proteus mirabilis; conditions: 5×10^5 CFU/mL
Summary of the method: as §1

Moraxella catarrhalis = assay: MIC against Gram-negative bacteria: Moraxella catarrhalis; conditions: 5×10^5 CFU/mL
Summary of the method: as §1

Klebsiella pneumonia = assay: MIC against Gram-negative bacteria: Klebsiella pneumonia; conditions: 5×10^5 CFU/mL
Summary of the method: as §1

Citrobacter diversus = assay: MIC against Gram-negative bacteria: Citrobacter diversus; conditions: 5×10^5 CFU/mL
Summary of the method: as §1

Serratia marcescens = assay: MIC against Gram-negative bacteria: Serratia marcescens; conditions: 5×10^5 CFU/mL
Summary of the method: as §1

Enterobacter cloacae = assay: MIC against Gram-negative bacteria: Enterobacter cloacae; conditions: 5×10^5 CFU/mL
Summary of the method: as §1

[1] = E. coli BL21, 96-well plate, 37° C., 10 h
[2] = Aeromonas hydrophila, 96-well plate, 37° C., 10 h
[3] = Pseudomonas aeruginosa, 96-well plate, 37° C., 10 h
[4] = Proteus vulgaris, 96-well plate, 37° C., 10 h
[5] = Proteus mirabilis, 96-well plate, 37° C., 10 h
[6] = Moraxella catarrhalis, 96-well plate, 37° C., 10 h
[7] = Klebsiella pneumonia, 96-well plate, 37° C., 10 h
[8] = Citrobacter diversus, 96-well plate, 37° C., 10 h
[9] = Serratia marcescens, 96-well plate, 37° C., 10 h
[10] = Enterobacter cloacae, 96-well plate, 37° C., 10 h

Substance: PRT26 (CDSGPCKNSGFCSERWGSFSCDCPVGFGGKDCQ; listed as Homo sapiens)
- MIC (μg/mL) E. coli BL21 (E. coli BL21; [1]): 12.5 µg/mL
- MIC (μg/mL) A. hydrophila (Aeromonas hydrophila; [2]): 12.5 µg/mL
- MIC (E. coli DH5α): 25 µg/mL
- MIC (μg/mL) P. aeruginosa (Pseudomonas aeruginosa; [3]): 25 µg/mL
- MIC (μg/mL) P. vulgaris (Proteus vulgaris; [4]): 12.5 µg/mL
- MIC (μg/mL) P. mirabilis (Proteus mirabilis; [5]): 25 µg/mL
- MIC (μg/mL) M. catarrhalis (Moraxella catarrhalis; [6]): 12.5 µg/mL
- MIC (μg/mL) K. pneumonia (Klebsiella pneumonia; [7]): 12.5 µg/mL
- MIC (μg/mL) C. diversus (Citrobacter diversus; [8]): 25 µg/mL
- MIC (μg/mL) S. marcescens (Serratia marcescens; [9]): 25 µg/mL
- MIC (μg/mL) E. cloacae (Enterobacter cloacae; [10]): 25 µg/mL

Substance: PRT22 (WCEDNGGCEQICTSRVDGPLCSCVTGTLQEDGKSCR; listed as Homo sapiens)
- MIC (μg/mL) E. coli BL21 (E. coli BL21; [1]): 50 µg/mL
- MIC (μg/mL) A. hydrophila (Aeromonas hydrophila; [2]): 25 µg/mL
- MIC (E. coli DH5α): 50 µg/mL
- MIC (μg/mL) P. aeruginosa (Pseudomonas aeruginosa; [3]): 25 µg/mL
- MIC (μg/mL) P. vulgaris (Proteus vulgaris; [4]): 12.5 µg/mL
- MIC (μg/mL) P. mirabilis (Proteus mirabilis; [5]): 12.5 µg/mL
- MIC (μg/mL) M. catarrhalis (Moraxella catarrhalis; [6]): 25 µg/mL
- MIC (μg/mL) K. pneumonia (Klebsiella pneumonia; [7]): 12.5 µg/mL
- MIC (μg/mL) C. diversus (Citrobacter diversus; [8]): 12.5 µg/mL
- MIC (μg/mL) S. marcescens (Serratia marcescens; [9]): 25 µg/mL
- MIC (μg/mL) E. cloacae (Enterobacter cloacae; [10]): 12.5 µg/mL

Substance: PRT1204 (DIDECGTGRHSCANDTICFNLDGGYDCRCPHGKNCT; listed as Homo sapiens)
- MIC against E. coli BL21 (E. coli BL21; [1]): 25 µg/mL
- MIC against A. hydrophila (Aeromonas hydrophila; [2]): 50 µg/mL
- MIC (E. coli DH5α): 100 µg/mL
- MIC against P. aeruginosa (Pseudomonas aeruginosa; [3]): 50 µg/mL
- MIC against P. vulgaris (Proteus vulgaris; [4]): 50 µg/mL
- MIC against P. mirabilis (Proteus mirabilis; [5]): 12.5 µg/mL
- MIC against M. catarrhalis (Moraxella catarrhalis; [6]): 25 µg/mL
- MIC against K. pneumonia (Klebsiella pneumonia; [7]): 25 µg/mL
- MIC against C. diversus (Citrobacter diversus; [8]): 25 µg/mL
- MIC against S. marcescens (Serratia marcescens; [9]): 25 µg/mL
- MIC against E. cloacae (Enterobacter cloacae; [10]): 12.5 µg/mL

Substance: PRT496 (CSCNNHSDTCDPNTGKCLNCGDNTAGDHCDVCTSGYYGKVTGSASDCAL; listed as Homo sapiens)
- MIC against E. coli BL21 (E. coli BL21; 96-well plate, 37° C., 10 h): 12.5 µg/mL
- MIC against A. hydrophila (Aeromonas hydrophila; 96-well plate, 37° C., 10 h): 12.5 µg/mL
- MIC (E. coli DH5α): 12.5 µg/mL
- MIC against P. aeruginosa (Pseudomonas aeruginosa; 96-well plate, 37° C., 10 h): 50 µg/mL
- MIC against P. vulgaris (Proteus vulgaris; 96-well plate, 37° C., 10 h): 50 µg/mL
- MIC against P. mirabilis (Proteus mirabilis; 96-well plate, 37° C., 10 h): 25 µg/mL
- MIC against M. catarrhalis (Moraxella catarrhalis; 96-well plate, 37° C., 10 h): 12.5 µg/mL
- MIC against K. pneumonia (Klebsiella pneumonia; 96-well plate, 37° C., 10 h): 12.5 µg/mL
- MIC against C. diversus (Citrobacter diversus; 96-well plate, 37° C., 10 h): 50 µg/mL
- MIC against S. marcescens (Serratia marcescens; 96-well plate, 37° C., 10 h): 25 µg/mL
- MIC against E. cloacae (Enterobacter cloacae; 96-well plate, 37° C., 10 h): 50 µg/mL

Substance: PRT233 (DSRGCARWCPQDSSCVNATACRCNPGFSSFSEIITTPMETCD; listed as Homo sapiens)
- MIC (μg/mL) E. coli BL21 (E. coli BL21; E. coli BL21, 10 h cultivation at 37° C.): 25 µg/mL
- MIC (μg/mL) A. hydrophila (Aeromonas hydrophila; A. hydrophila, 10 h cultivation at 37° C.): 25 µg/mL
- MIC (E. coli DH5α): 12.5 µg/mL
- MIC (μg/mL) P. aeruginosa (Pseudomonas aeruginosa; P. aeruginosa, 10 h cultivation at 37° C.): 12.5 µg/mL
- MIC (μg/mL) P. vulgaris (Proteus vulgaris; P. vulgaris, 10 h cultivation at 37° C.): 25 µg/mL
- MIC (μg/mL) P. mirabilis (Proteus mirabilis; P. mirabilis, 10 h cultivation at 37° C.): 100 µg/mL
- MIC (μg/mL) M. catarrhalis (Moraxella catarrhalis; M. catarrhalis, 10 h cultivation at 37° C.): 25 µg/mL
- MIC (μg/mL) K. pneumonia (Klebsiella pneumonia; K. pneumonia, 10 h cultivation at 37° C.): 25 µg/mL
- MIC (μg/mL) C. diversus (Citrobacter diversus; C. diversus, 10 h cultivation at 37° C.): 12.5 µg/mL
- MIC (μg/mL) S. marcescens (Serratia marcescens; S. marcescens, 10 h cultivation at 37° C.): 12.5 µg/mL
- MIC (μg/mL) E. cloacae (Enterobacter cloacae; E. cloacae, 10 h cultivation at 37° C.): 12.5 µg/mL

Substance: PRT1334 (PINPCLRKICHPHAHCTYLGPNRHSCTCQEGYRGDGQVCL; listed as Homo sapiens)
- MIC against E. coli BL21 (E. coli BL21; [1]): 12.5 µg/mL
- MIC against A. hydrophila (Aeromonas hydrophila; [2]): 12.5 µg/mL
- MIC (E. coli DH5α): 12.5 µg/mL
- MIC against P. aeruginosa (Pseudomonas aeruginosa; [3]): 50 µg/mL
- MIC against P. vulgaris (Proteus vulgaris; [4]): 25 µg/mL
- MIC against P. mirabilis (Proteus mirabilis; [5]): 100 µg/mL
- MIC against M. catarrhalis (Moraxella catarrhalis; [6]): 25 µg/mL
- MIC against K. pneumonia (Klebsiella pneumonia; [7]): 12.5 µg/mL
- MIC against C. diversus (Citrobacter diversus; [8]): 50 µg/mL
- MIC against S. marcescens (Serratia marcescens; [9]): 25 µg/mL
- MIC against E. cloacae (Enterobacter cloacae; [10]): 50 µg/mL

Substance: PRT31 (CDCYPVGSTSRSCAPHSGQCPCRPGALGRQCNSCDSPFAEVTASGC; listed as Homo sapiens)
- MIC (μg/mL) E. coli BL21 (E. coli BL21; [1]): 12.5 µg/mL
- MIC (μg/mL) A. hydrophila (Aeromonas hydrophila; [2]): 25 µg/mL
- MIC (E. coli DH5α): 25 µg/mL
- MIC (μg/mL) P. aeruginosa (Pseudomonas aeruginosa; [3]): 12.5 µg/mL
- MIC (μg/mL) P. vulgaris (Proteus vulgaris; [4]): 50 µg/mL
- MIC (μg/mL) P. mirabilis (Proteus mirabilis; [5]): 25 µg/mL
- MIC (μg/mL) M. catarrhalis (Moraxella catarrhalis; [6]): 12.5 µg/mL
- MIC (μg/mL) K. pneumonia (Klebsiella pneumonia; [7]): 25 µg/mL
- MIC (μg/mL) C. diversus (Citrobacter diversus; [8]): 12.5 µg/mL
- MIC (μg/mL) S. marcescens (Serratia marcescens; [9]): 25 µg/mL
- MIC (μg/mL) E. cloacae (Enterobacter cloacae; [10]): 12.5 µg/mL
